Reference: paper PMC11869128, “Bayesian Optimization over Multiple Experimental Fidelities Accelerates Automated Discovery of Drug Molecules” (ACS Central Science, 2025)
Like-named read-outs stand apart in the source and are kept apart here.

How the values were obtained:
HDAC [1] = test: HDAC fluorometric assay, single-point percent inhibition (medium fidelity); format: biochemical; conditions: for IC50: first iteration, assuming binding follows the Hill equation and is noncooperative, assay run at 20 μM scale, read-out: IC50 corresponding to single point inhibition
Excerpt: In the first iteration, the experimental design algorithm recommended that 3,385 candidates be docked (39% of budget), 261 candidates screened for single-point percent inhibition (61% of budget), and no candidates be manually synthesized for full dose–response characterization (0% of budget). The total budget was 100.0 with the same experiment cost structure of 0.01 for docking, 0.2 for single-point, and 1.0 for dose response curve. Docking was automatically performed with DiffDock, and the resulting conformers scored based on their binding to the catalytic zinc ion and overlap with bound known inhibitors from X-ray crystallography. For the candidates selected for automatic synthesis, the reactions were batched by temperature into well plates to be run in parallel on the automated platform. With a maximum allowance of 6 well plates, the platform attempted to synthesize 79 candidates, with an average of 2.4 reaction steps required for each candidate. Based on observation of the expected mass-to-charge ratio (m/z) during automatic HPLC-MS analysis, 40 of the syntheses were successful. The successful syntheses were automatically purified with semipreparative HPLC, the concentration of the inhibitor was automatically estimated,[47] and the fluorometric inhibition assay was automatically run at 20 μM scale. The structures, synthesis plans, assay scores, and statistics for the attempted molecules are in the SI.

HDAC [2] = conditions: cited from earlier work
HDAC [3] = test: HDAC fluorometric assay, dose-response curve (high fidelity); conditions: read-out: IC50 (Dose-Response Curve), manually synthesized molecules
Procedure: HDAC inhibition is automatically measured in a plate reader with a fluorometric assay (Abcam ab283378). In the plate-based assay, the liquid handler first dispenses individual purified products in dimethyl sulfoxide into each well, then adds buffer containing HDAC and a peptide substrate containing an acetylated lysine residue. The solution is agitated and incubated for 30 min at 37 °C, then a developer, which reacts with primary amines to form a fluorescent product, is dispensed and incubated for another 30 min. After the second incubation, the plate is transferred to the plate reader to measure fluorescence corresponding to uninhibited HDAC activity. The platform handles all aspects of the assay; dispensing reagents, timing incubation, transferring plates, preparing positive and negative controls, and analyzing fluorescent readouts without human input.

For `O=C1CCc2cc(Nn3cnnc3)ccc21` [5-((1,2,4-triazol-4-yl)amino)-indan-1-one], the “inhibition in the single-point assay” value (HDAC [1]; second iteration, automated synthesis and assay) was 11%.
With `CC(C)(C)N(S(C)(=O)=O)S(=O)(=O)c1cccc(Br)c1` [a] the IC50 (HDAC [1]) was 1140 nM.
For `Cc1ccc(S(=O)(=O)N(c2ccc([N+](=O)[O-])cc2)C2CCC2)cc1` [b], the IC50 (HDAC [1]) was 3310 nM.
Compound `O=[N+]([O-])c1ccc(N(S(=O)(=O)c2cccc3cccnc23)S(=O)(=O)C(F)(F)F)cc1` [c] has an IC50 (HDAC [1]) of 7250 nM.
In the case of `CCN(CC)Cc1ccc2cc(COC(=O)Nc3ccc(C(=O)NO)cc3)ccc2c1` [givinostat], the IC50 (HDAC [2]; FDA approved hydroxamate) is listed as 837 nM.
Compound `CC(/C=C/C(=O)NO)=C\[C@@H](C)C(=O)c1ccc(N(C)C)cc1` [trichostatin A] has an IC50 (HDAC [3]) of 1.8 nM.
In the case of `CCCC(CCC)C(=O)O` [valproate], the IC50 (HDAC [2]; FDA approved nonhydroxamate inhibitor) is listed as 180000 nM.
